Results published in patent US10555961B2 (INDIANA UNIVERSITY RESEARCH AND TECHNOLOGY CORPORATION, priority 2015, dated 2020).

Tests used:
Assay type in all cases: cell-based
Klebsiella pneumonia = experiment: Bacterial assay, kill zones and growth inhibition zones; settings: FIG. 2
Protocol: (§1) Bacterial assays were performed using native gentamicin and the C-1, C-1a, C-2, and C-2a congeners of gentamicin.

Bacillus subtilis = experiment: as above; settings: FIG. 2
Protocol: as §1

[1] = tested on: variant of Klebsiella pneumonia that exhibits multi-drug resistance; settings: multi-drug resistant Klebsiella pneumonia, FIG. 2
Protocol: as §1

UGAC stop codon = experiment: Stop codon readthrough (FIG. 7); settings: 200 μg mL^−1 for 24 hours, relative to controls
Protocol: Native gentamicin and various congeners prepared as in Example 1 were tested to determine their effect on stop codon readthrough.
In order to determine the optimal concentrations of the aminoglycosides (tobramycin, amikacin, and gentamicin) to use in the mammalian translation system, increasing amounts of each aminoglycoside were added to a rabbit reticulocyte translation system while expressing the QX(N) (UGAC) construct. The effect of aminoglycosides on total protein synthesis was monitored by comparing the total amount of proteins synthesized in the presence and absence of various aminoglycosides. A range of aminoglycoside concentrations was then determined that allowed a maximal amount of termination suppression without inhibiting total protein synthesis more than two- to threefold. In vitro translation reactions were carried out using the TNT coupled transcription/translation system (Promega, Madison, Wis.). […] The gel was dried and subjected to Phosphorlmager analysis in order to quantitate the amount of truncated and full-length protein species. The percentage of readthrough was then calculated as the amount of full-length protein/(truncated+full-length species)×100%.

C-1 gentamicin was tested, and the “anti-bacterial activity (kill zones and growth inhibition zones)” value (Klebsiella pneumonia) was “demonstrated anti-bacterial activity”, the “anti-bacterial activity (kill zones and growth inhibition zones)” value (Bacillus subtilis) was “demonstrated anti-bacterial activity” and the “anti-bacterial activity (kill zones and growth inhibition zones)” value [1] was “demonstrated anti-bacterial activity”. For the same substance, the “readthrough of the stop codon UGAC” value (UGAC stop codon) was “greater readthrough relative to controls”.
With C-1a gentamicin the “anti-bacterial activity (kill zones and growth inhibition zones)” value (Klebsiella pneumonia) was “demonstrated anti-bacterial activity”, the “anti-bacterial activity (kill zones and growth inhibition zones)” value (Bacillus subtilis) was “demonstrated anti-bacterial activity” and the “anti-bacterial activity (kill zones and growth inhibition zones)” value [1] was “demonstrated anti-bacterial activity”.
For C-2 gentamicin, the “anti-bacterial activity (kill zones and growth inhibition zones)” value (Klebsiella pneumonia) was “demonstrated anti-bacterial activity”, the “anti-bacterial activity (kill zones and growth inhibition zones)” value (Bacillus subtilis) was “demonstrated anti-bacterial activity” and the “anti-bacterial activity (kill zones and growth inhibition zones)” value [1] was “demonstrated anti-bacterial activity”. For the same substance, the “readthrough of the stop codon UGAC” value (UGAC stop codon) was “greater readthrough relative to controls”.
In the case of C-2a gentamicin, the “anti-bacterial activity (kill zones and growth inhibition zones)” value (Klebsiella pneumonia) is reported as “demonstrated anti-bacterial activity”, the “anti-bacterial activity (kill zones and growth inhibition zones)” value (Bacillus subtilis) is reported as “demonstrated anti-bacterial activity” and the “anti-bacterial activity (kill zones and growth inhibition zones)” value [1] is reported as “demonstrated anti-bacterial activity”.
